{
  "source": "PubChem BioAssay (NCI)",
  "test_in_all_cases": "NCI tumour cell line growth inhibition, 48 h",
  "key": {"SW-620 colon": {"test_system": "SW-620 colon"}, "SK-MEL-5 melanoma": {"test_system": "SK-MEL-5 melanoma"}, "NCI-H23 lung": {"test_system": "NCI-H23 lung"}, "EKVX NSCLC": {"test_system": "EKVX NSCLC"}, "LOX IMVI melanoma": {"test_system": "LOX IMVI melanoma"}, "HT29 colon": {"test_system": "HT29 colon"}, "CAKI-1 renal": {"test_system": "CAKI-1 renal"}, "MOLT-4 leukemia": {"test_system": "MOLT-4 leukemia"}, "A498 renal": {"test_system": "A498 renal"}, "T-47D breast": {"test_system": "T-47D breast"}, "OVCAR-3 ovarian": {"test_system": "OVCAR-3 ovarian"}, "RPMI-8226 leukemia": {"test_system": "RPMI-8226 leukemia"}, "MDA-MB-435": {"test_system": "MDA-MB-435"}, "SF-268 CNS": {"test_system": "SF-268 CNS"}, "ACHN renal": {"test_system": "ACHN renal"}, "BT-549 breast": {"test_system": "BT-549 breast"}, "A549 NSCLC": {"test_system": "A549 NSCLC"}, "MCF7 breast": {"test_system": "MCF7 breast"}, "IGROV1 ovarian": {"test_system": "IGROV1 ovarian"}, "UACC-257 melanoma": {"test_system": "UACC-257 melanoma"}, "SK-MEL-28 melanoma": {"test_system": "SK-MEL-28 melanoma"}, "PC-3 prostate": {"test_system": "PC-3 prostate"}, "MDA-MB-231 breast": {"test_system": "MDA-MB-231 breast"}, "CCRF-CEM leukemia": {"test_system": "CCRF-CEM leukemia"}, "U251 CNS": {"test_system": "U251 CNS"}, "DU-145 prostate": {"test_system": "DU-145 prostate"}, "HCT-116 colon": {"test_system": "HCT-116 colon"}, "HL-60(TB) leukemia": {"test_system": "HL-60(TB) leukemia"}, "SNB-75 CNS": {"test_system": "SNB-75 CNS"}, "NCI-H226 lung": {"test_system": "NCI-H226 lung"}},
  "note": "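Protocol summary: plate cells (96-well), add compound at 5 concentrations, incubate 48 h, interpolate endpoints linearly. GI50 is the concentration that inhibits growth by half. TGI marks complete inhibition of growth.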",
  "data": [
    {"smiles": "CCCCSc1nc(Nc2ccc(/C(C)=N/NC(N)=S)cc2)c(C#N)c(-c2ccc(OC)cc2)n1", "values": [
      {"measurement": "GI50", "setting": "SW-620 colon", "value": "> 100", "unit": "µM"},
      {"measurement": "TGI", "setting": "SW-620 colon", "value": "> 100", "unit": "µM"},
      {"measurement": "GI50", "setting": "SK-MEL-5 melanoma", "value": 3.61, "unit": "µM"},
      {"measurement": "TGI", "setting": "SK-MEL-5 melanoma", "value": 17, "unit": "µM"},
      {"measurement": "GI50", "setting": "NCI-H23 lung", "value": 6.46, "unit": "µM"},
      {"measurement": "TGI", "setting": "NCI-H23 lung", "value": 19, "unit": "µM"},
      {"measurement": "GI50", "setting": "EKVX NSCLC", "value": 56.4, "unit": "µM"},
      {"measurement": "TGI", "setting": "EKVX NSCLC", "value": "> 100", "unit": "µM"},
      {"measurement": "GI50", "setting": "LOX IMVI melanoma", "value": 3.9, "unit": "µM"},
      {"measurement": "TGI", "setting": "LOX IMVI melanoma", "value": 17.9, "unit": "µM"},
      {"measurement": "GI50", "setting": "HT29 colon", "value": "> 100", "unit": "µM"},
      {"measurement": "TGI", "setting": "HT29 colon", "value": "> 100", "unit": "µM"},
      {"measurement": "GI50", "setting": "CAKI-1 renal", "value": 18.3, "unit": "µM"},
      {"measurement": "TGI", "setting": "CAKI-1 renal", "value": 54.1, "unit": "µM"},
      {"measurement": "GI50", "setting": "MOLT-4 leukemia", "value": "> 100", "unit": "µM"},
      {"measurement": "TGI", "setting": "MOLT-4 leukemia", "value": "> 100", "unit": "µM"},
      {"measurement": "GI50", "setting": "A498 renal", "value": 10.6, "unit": "µM"},
      {"measurement": "TGI", "setting": "A498 renal", "value": 22.4, "unit": "µM"},
      {"measurement": "GI50", "setting": "T-47D breast", "value": 12.5, "unit": "µM"},
      {"measurement": "TGI", "setting": "T-47D breast", "value": 36.7, "unit": "µM"},
      {"measurement": "GI50", "setting": "OVCAR-3 ovarian", "value": 21.5, "unit": "µM"},
      {"measurement": "TGI", "setting": "OVCAR-3 ovarian", "value": 44.3, "unit": "µM"},
      {"measurement": "GI50", "setting": "RPMI-8226 leukemia", "value": 45.7, "unit": "µM"},
      {"measurement": "TGI", "setting": "RPMI-8226 leukemia", "value": "> 100", "unit": "µM"},
      {"measurement": "GI50", "setting": "MDA-MB-435", "value": 36.9, "unit": "µM"},
      {"measurement": "TGI", "setting": "MDA-MB-435", "value": "> 100", "unit": "µM"},
      {"measurement": "GI50", "setting": "SF-268 CNS", "value": 26, "unit": "µM"},
      {"measurement": "TGI", "setting": "SF-268 CNS", "value": "> 100", "unit": "µM"},
      {"measurement": "GI50", "setting": "ACHN renal", "value": 15.3, "unit": "µM"},
      {"measurement": "TGI", "setting": "ACHN renal", "value": 28.5, "unit": "µM"},
      {"measurement": "GI50", "setting": "BT-549 breast", "value": 6.55, "unit": "µM"},
      {"measurement": "TGI", "setting": "BT-549 breast", "value": 26.9, "unit": "µM"},
      {"measurement": "GI50", "setting": "A549 NSCLC", "value": 16.5, "unit": "µM"},
      {"measurement": "TGI", "setting": "A549 NSCLC", "value": 40.9, "unit": "µM"},
      {"measurement": "GI50", "setting": "MCF7 breast", "value": 17.1, "unit": "µM"},
      {"measurement": "TGI", "setting": "MCF7 breast", "value": "> 100", "unit": "µM"},
      {"measurement": "GI50", "setting": "IGROV1 ovarian", "value": 19.5, "unit": "µM"},
      {"measurement": "TGI", "setting": "IGROV1 ovarian", "value": 40, "unit": "µM"},
      {"measurement": "GI50", "setting": "UACC-257 melanoma", "value": "> 100", "unit": "µM"},
      {"measurement": "TGI", "setting": "UACC-257 melanoma", "value": "> 100", "unit": "µM"},
      {"measurement": "GI50", "setting": "SK-MEL-28 melanoma", "value": 35.8, "unit": "µM"},
      {"measurement": "TGI", "setting": "SK-MEL-28 melanoma", "value": "> 100", "unit": "µM"},
      {"measurement": "GI50", "setting": "PC-3 prostate", "value": "> 100", "unit": "µM"},
      {"measurement": "TGI", "setting": "PC-3 prostate", "value": "> 100", "unit": "µM"},
      {"measurement": "GI50", "setting": "MDA-MB-231 breast", "value": 2.27, "unit": "µM"},
      {"measurement": "TGI", "setting": "MDA-MB-231 breast", "value": 8.21, "unit": "µM"},
      {"measurement": "GI50", "setting": "CCRF-CEM leukemia", "value": "> 100", "unit": "µM"},
      {"measurement": "TGI", "setting": "CCRF-CEM leukemia", "value": "> 100", "unit": "µM"},
      {"measurement": "GI50", "setting": "U251 CNS", "value": 6.88, "unit": "µM"},
      {"measurement": "TGI", "setting": "U251 CNS", "value": 19.9, "unit": "µM"},
      {"measurement": "GI50", "setting": "DU-145 prostate", "value": 10.2, "unit": "µM"},
      {"measurement": "TGI", "setting": "DU-145 prostate", "value": "> 100", "unit": "µM"},
      {"measurement": "GI50", "setting": "HCT-116 colon", "value": 6.79, "unit": "µM"},
      {"measurement": "TGI", "setting": "HCT-116 colon", "value": 30, "unit": "µM"},
      {"measurement": "GI50", "setting": "HL-60(TB) leukemia", "value": "> 100", "unit": "µM"},
      {"measurement": "TGI", "setting": "HL-60(TB) leukemia", "value": "> 100", "unit": "µM"},
      {"measurement": "GI50", "setting": "SNB-75 CNS", "value": 10.4, "unit": "µM"},
      {"measurement": "TGI", "setting": "SNB-75 CNS", "value": 78.3, "unit": "µM"},
      {"measurement": "GI50", "setting": "NCI-H226 lung", "value": 11.9, "unit": "µM"}
    ]}
  ]
}
